Series [1] deals with Sprague-Dawley rats. Description: Inhibition of carrageenan-induced paw edema, oral administration. The settings on record: oral, IndoH 10 mg kg^−1, complex 11 mg kg^−1, mean(sem). It is filed as in vivo, rat. On the procedure:
Inhibition of Carrageenan-Induced Paw Edema: Rats were orally administered (non-anaesthetized) the Test Samples or Test Compositions via oral gavage. The control cohort was dosed solely with CMC (2%) solution. […] Exp. Ther. 1965, 150, 165-171). The thickness of the paw was measured at the ventral dorsal footpad using digital calipers prior to dosing and at 3 and 5 h after carrageenan injection. The change in the measured parameter (ΔP) for thickness of paw (Δmm) at n=3- and 5-hours after carrageenan injection is given by: ΔP=Pt=n-Pt=0 (I) The percent inhibition (% inhibition) at 3- or 5-hours in the measured parameter (P) due to the treatment is given as the difference between the % increase in the value of P in the control group and the treatment group at n=3- or 5-hours, with the % increase in the value of P given by: […]

A short description of series [2]: EPR spectroscopic determination of Cu(II) monomer / dissociation of the complex in formulations. It is filed as physicochemical. The following applies: percentage of the total amount of Cu in the composition; X-band EPR, 4 K. On the procedure:
The synthesis of [Cu2(Indo)4(OH2)2] may result in a product containing a small amount of monomer (typically 5% or less), and this monomer may or may not contain Indo Thus a composition containing [Cu2(Indo)4(OH2)2] may or may not contain a small amount of a Cu(II) monomer containing Indo.
The relative amounts of the Cu(II) monomer in samples of various compositions containing the complex [Cu2(Indo)4(OH2)2] were determined as described below. […]
EPR Spectroscopy. Low temperature (4-110 K) X-band EPR spectra of the compositions containing [Cu2(Indo)4(OH2)2] were measured at X-band frequencies (˜9.5 GHz) using a Bruker EMX EPR spectrometer equipped with a standard ER4120 X band cavity, EMX 035M NMR gaussmeter, EMX 032T field controller, EMX 081 magnet power supply, Bruker EMX 048T microwave bridge control and BVT2000 variable temperature unit and Oxford Instruments E900 continuous flow cryostat (for low temperature data collection). Low temperature X-band EPR Cu(II) spectra of samples of [Cu2(Indo)4(OH2)2] containing less than 0.47 mM Cu(II) were measured using a Bruker ESP 300 spectrometer equipped with a Hewlett Packard 5352B microwave frequency counter, Bruker ER 085C magnet power supply, Bruker ER 032 magnet field control, Bruker ER 023M signal channel and Bruker ESP 1600-1048 microwave bridge controller. […]

Series [3] has as its system Sprague-Dawley rats. Description: Anti-inflammatory activity (rat paw oedema) after subcutaneous or intramuscular injection. It is filed as in vivo. On the procedure:
In Vivo Anti-inflammatory Activity and Gastric Toxicity. Groups of four rats were used for all studies. All doses were calculated as equivalent concentrations of Indo. […] For subcutaneous and intramuscular administration, rats were injected with 125-200 μL volumes of the test compositions (IndoH or [Cu2(Indo)4(OH2)2] in MCT oil). The control cohort was injected with equivalent volumes of neat MCT. Subcutaneous injections were made in the lower dorsal surface and intramuscular injections were made in the right hind thigh muscle. Inflammation was induced 1 h after dosing by injection of the formulation by an injection of carrageenan (0.1 mL, 1% w/v in isotonic saline) into the plantar region of the hind paw.
Paw volume was measured prior to dosing and at 3 h after carrageenan injection by immersing the left hind paw (to the lateral malleus) into a vessel filled with water as described in Example 5. Immediately after paw volume measurements, 24 h-fasted animals were euthanised and the stomach was excised and opened by incision along the greater curvature.

Series [4] deals with Sprague-Dawley rats. Description: Small intestine ulceration after oral administration. The settings on record: rats fed, oral gavage, 24 h after dosing; IndoH 10 mg kg^−1, complexes 11 mg kg^−1; mean ± sem; listed as Sample F. The format is in vivo, rat. The method, then:
The rats were orally administered (non-anaesthetized) the Test Samples or Test Compositions via oral gavage. The controls were dosed with CMC (2%) solution.
The total volume of the MCT or carbopol paste compositions administered per dose in the assessment of gastrointestinal ulceration was no more than 0.5 g.

On to `COc1ccc2c(c1)c(CC(=O)[O-])c(C)n2C(=O)c1ccc(Cl)cc1.COc1ccc2c(c1)c(CC(=O)[O-])c(C)n2C(=O)c1ccc(Cl)cc1.COc1ccc2c(c1)c(CC(=O)[O-])c(C)n2C(=O)c1ccc(Cl)cc1.COc1ccc2c(c1)c(CC(=O)[O-])c(C)n2C(=O)c1ccc(Cl)cc1.O.O.[Cu+2].[Cu+2]` [[Cu2(Indo)4(OH2)2]], for which the “percent inhibition in rat hind-paw diameter change, 3-hr” value in the series on Sprague-Dawley rats [1] (3 h post carrageenan) is listed as 30(4)%. Further, the “percent inhibition in rat hind-paw diameter change, 5-hr” value in the series with Sprague-Dawley rats [1] (5 h post carrageenan) is given as 31(3)%. Also, in series [2], the “Cu(II) monomer (%)” value was “^aThe technique is not applicable to dry powders, however, solid-state [Cu2(Indo)4L2] (L = OH2) contains <1% Cu(II) monomer fraction”. For the same compound, the Percent inhibition in the series with Sprague-Dawley rats [3] (intramuscular, fasting rats, 2 mg/kg equivalent dose of Indo) worked out at 0%; in the series with Sprague-Dawley rats [3] (intramuscular, fasting rats, 10 mg/kg equivalent dose of Indo), 47.7%; with Sprague-Dawley rats [3] (intramuscular, fasting rats, 20 mg/kg equivalent dose of Indo), 49.7%; in the series with Sprague-Dawley rats [3] (subcutaneous, 1 mg/kg of Indo, fasting), 4%; with Sprague-Dawley rats [3] (subcutaneous, 2 mg/kg of Indo, fasting), 6%; with Sprague-Dawley rats [3] (subcutaneous, 5 mg/kg of Indo, fasting) it was 24.9%. Moreover, the Percent inhibition in the series on Sprague-Dawley rats [3] (subcutaneous, 7.5 mg/kg of Indo, non-fasting) is 47%; in the series with Sprague-Dawley rats [3] (subcutaneous, 10 mg/kg of Indo, fasting), 35.8%; in the series with Sprague-Dawley rats [3] (subcutaneous, 20 mg/kg of Indo, fasting) it was 33.9%; in the series with Sprague-Dawley rats [3] (subcutaneous, 20 mg/kg of Indo, non-fasting) it was 31.6%. The “dose at which the anti-inflammatory effect plateaus” value with Sprague-Dawley rats [3] (subcutaneous, in MCT oil) is recorded as 5-7.5 mg kg^−1 of Indo. Further, the “Small intestine ulceration (mm^2)” value in the series on Sprague-Dawley rats [4] came to 61.0±34.5 mm^2.

The values are drawn from patent US20080039522A1, “Composition Containing a Complex Comprising a Metal Ion and a Carboxylate Ligand Having Anti-Inflammatory Activity” (Medical Therapies Limited, priority 2004, published 2008).
